Measurements published in patent US5153223A, “Biurets, aminocarbonyl carbamates, and aminocarbonyl thiocarbamates useful as ACAT inhibitors” (priority 1991, dated 1992).
Read-outs that look alike come from different tables or passages of the source.

Columns and labels:
[1] = In vivo screen APCC: plasma total cholesterol in rats on high fat, high cholesterol diet with 0.5% cholic acid; set-up: species or system male Sprague-Dawley rats; details: rat APCC, high fat high cholesterol diet overnight; for change in vivo at 30 mg/kg / change in vivo at 50 mg/kg: read-out: % Change in Plasma TC Values (mg/dL); for change in vivo at 50 mg/kg: *Dosed at 50 mg/kg
From the text: In one in vivo screen designated APCC, male Sprague-Dawley rats (200 to 225 g) were randomly divided into treatment groups and dosed at 4 PM with either vehicle (CMC/Tween) or suspensions of compounds in vehicle. The norma chow diet was then replaced with a high fat, high cholesterol diet with 0.5% cholic acid. The rats consumed this diet ad libitum during the night and were sacrificed at 8 AM to obtain blood samples for cholesterol analysis using standard procedures. Statistical differences between mean cholesterol values for the same vehicle were determined using analysis of variance followed by Fisher's least significant test. Compounds were dosed at 30 mg/kg unless otherwise noted.

[2] = target: T1, acyl-CoA: cholesterol acyltransferase (ACAT) (Oryctolagus cuniculus, UniProt G1SFD9); test: In vitro ACAT inhibition (IAI): radiolabeled cholesterol oleate formed from radiolabeled oleic acid in rabbit intestinal microsomes; type: biochemical
T1 construct: tissue preparation containing rabbit intestinal microsomes; from tissue; host or cells: rabbit intestinal microsomes
T1 sequence (G1SFD9 1-524): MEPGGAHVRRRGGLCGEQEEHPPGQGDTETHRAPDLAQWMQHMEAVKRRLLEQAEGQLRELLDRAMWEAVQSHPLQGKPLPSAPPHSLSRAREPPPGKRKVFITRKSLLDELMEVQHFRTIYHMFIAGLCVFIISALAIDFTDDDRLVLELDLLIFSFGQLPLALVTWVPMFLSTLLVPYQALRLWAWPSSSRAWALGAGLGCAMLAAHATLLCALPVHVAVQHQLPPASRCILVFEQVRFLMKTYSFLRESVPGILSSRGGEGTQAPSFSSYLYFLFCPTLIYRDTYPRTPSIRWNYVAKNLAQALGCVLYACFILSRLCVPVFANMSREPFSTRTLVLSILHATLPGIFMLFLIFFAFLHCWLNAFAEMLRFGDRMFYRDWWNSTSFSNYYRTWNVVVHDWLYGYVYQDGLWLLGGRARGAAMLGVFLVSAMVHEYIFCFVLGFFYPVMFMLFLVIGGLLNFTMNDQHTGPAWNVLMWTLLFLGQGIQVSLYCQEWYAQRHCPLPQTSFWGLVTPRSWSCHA
Description: The ability of representative compounds of the present invention to inhibit ACAT was measured using an in vitro test more fully described in F. J. Field and R. G. Salone, Biochemica et Biophysica 712:557-570 (1982). The test assesses the ability of a test compound to inhibit the acylation of cholesterol by oleic acid by measuring the amount of radiolabeled cholesterol oleate formed from radiolabeled oleic acid in a tissue preparation containing rabbit intestinal microsomes.
The data appear in Table 1 where they are expressed as IC50 values; i.e., the concentration of test compound required to inhibit the activity of the enzyme by 50%.

[3] = rabbit intestinal microsomes, ACAT, read-out: IAI IC50

For `CCCCCCCCCCC(C)OC(=O)NC(=O)Nc1c(C(C)C)cccc1C(C)C` (racemic) [Example 19, (±)[[[2,6-bis(1-methylethyl)phenyl]amino]carbonyl]carbamic acid, 1-methylundecyl ester], the change in vivo at 30 mg/kg ([1]; 30 mg/kg) was -26%.
`CCCCCCCC(C)OC(=O)NC(=O)Nc1c(C(C)C)cccc1C(C)C` (racemic) [Example 20, (±)[[[2,6-bis(1-methylethyl)phenyl]amino]carbonyl]carbamic acid, 1-methyloctyl ester] gave a change in vivo at 30 mg/kg ([1]; 30 mg/kg) of -24%.
Work on `CCCCCC(C)OC(=O)NC(=O)Nc1c(C(C)C)cccc1C(C)C` (racemic) [Example 21, (±)[[[2,6-bis(1-methylethyl)phenyl]amino]carbonyl]carbamic acid, 1-methylhexyl ester] yielded a change in vivo at 30 mg/kg ([1]; 30 mg/kg) of -22%.
Work on `CCCCCCCCC(C)OC(=O)NC(=O)Nc1c(C(C)C)cccc1C(C)C` (racemic) [Example 22, (±)[[[2,6-bis(1-methylethyl)phenyl]amino]carbonyl]carbamic acid, 1-methylnonyl ester] yielded a change in vivo at 30 mg/kg ([1]; 30 mg/kg) of -22%.
`CCCCCCCCCCCCCCC(C)OC(=O)NC(=O)Nc1c(C(C)C)cccc1C(C)C` (racemic) [Example 23, (±)[[[2,6-bis(1-methylethyl)phenyl]amino]carbonyl]carbamic acid, 1-methylpentadecyl ester] showed a change in vivo at 30 mg/kg ([1]; 30 mg/kg) of -26%.
Work on `CCCCCCCCCCCCC(C)OC(=O)NC(=O)Nc1c(C(C)C)cccc1C(C)C` (racemic) [Example 24, (±)[[[2,6-bis(1-methylethyl)phenyl]amino]carbonyl]carbamic acid, 1-methyltridecyl ester] yielded a change in vivo at 30 mg/kg ([1]; 30 mg/kg) of -33%.
With `CC(C)c1cccc(C(C)C)c1NC(=O)N(C)C(=O)N(c1ccccc1)c1ccccc1` [Example 1, N'-[2,6-bis(1-methylethyl)phenyl]-2-methyl-N,N-diphenyliminodicarbonic diamide] the change in vivo at 30 mg/kg ([1]; 30 mg/kg) was -9% and the IC50 [2, 3] was 0.6 µM.
With `CC(C)c1cccc(C(C)C)c1NC(=O)NC(=O)NC(c1ccccc1)c1ccccc1` [Example 2, N-[2,6-bis(1-methylethyl)phenyl)-N'-(diphenylmethyl) iminodicarbonic amide] the IC50 [2, 3] was over 1 µM.
`CC(C)c1cccc(C(C)C)c1NC(=O)NC(=O)Nc1c(C(C)C)cccc1C(C)C` [Example 3, N,N'-bis[2,6-bis(1-methylethyl)phenyl]imidodicarbonic diamide] gave an IC50 [2, 3] of over 5 µM.
Compound `CC(C)c1cccc(C(C)C)c1NC(=O)NC(=O)N(Cc1ccccc1)Cc1ccccc1` [Example 4, N'-[2,6-bis(1-methylethyl)phenyl]-N,N-bis(phenylmethyl)imidodicarbonic diamide] has a change in vivo at 50 mg/kg [1] of -13%.
`CC(C)c1cccc(C(C)C)c1NC(=O)NC(=O)N(c1ccccc1)c1ccccc1` [Example 5, N'-[2,6-bis(1-methylethyl)phenyl]-N,N-diphenylimidodicarbonic diamide] gave a change in vivo at 50 mg/kg [1] of -40%.
Compound `CCCCCCCCN(CCCCCCCC)C(=O)NC(=O)Nc1c(C(C)C)cccc1C(C)C` [Example 6, N-[2,6-bis(1-methylethyl)phenyl]-N,N-dioctylimidodicarbonic diamide] has a change in vivo at 50 mg/kg [1] of -5%.
In the case of `CCCCN(CCCC)C(=O)NC(=O)Nc1c(C(C)C)cccc1C(C)C` [Example 7, N'-[2,6-bis(1-methylethyl)phenyl]-N,N-dibutylimidodicarbonic diamide], the change in vivo at 50 mg/kg [1] is reported as -23%.
`CC(C)c1cccc(C(C)C)c1NC(=O)NC(=O)N1c2ccccc2CCc2ccccc21` [Example 8, N-[[[2,6-bis(1-methylethyl)phenyl]amino]carbonyl]-10,11-dihydro-5H-dibenz[b,f]azepin-5-carboxamide] gave a change in vivo at 50 mg/kg [1] of -18% and an IC50 [2, 3] of 0.89 µM.
Compound `CC(C)c1cccc(C(C)C)c1NC(=O)NC(=O)N1CCCC1` [Example 9, N-[[[2,6-bis(1-methylethyl)phenyl]amino]carbonyl]-1-pyrrolidinecarboxamide] has an IC50 [2, 3] of over 5 µM.
`CCN(CC)C(=O)NC(=O)Nc1c(C(C)C)cccc1C(C)C` [Example 10, N'-[2,6-bis(1-methylethyl)phenyl]-N,N-diethylimidodicarbonic diamide] gave an IC50 [2, 3] of over 5 µM.
Compound `CC(C)c1cccc(C(C)C)c1NC(=O)NC(=O)N(Cc1ccccc1)C(C)C` [Example 11, N'-[2,6-bis(1-methylethyl)phenyl]-N-(1-methylethyl)-N-(phenylmethyl)imidodicarbonic diamide] has a change in vivo at 50 mg/kg [1] of -27%.
Compound `CC(C)c1cccc(C(C)C)c1NC(=O)NC(=O)N1c2ccccc2Sc2ccccc21` [Example 12, N-[[[2,6-bis(1-methylethyl)phenyl]amino]carbonyl]-10H-phenothiazine-10-carboxamide] has a change in vivo at 50 mg/kg [1] of -19%.
`CC(C)c1cccc(C(C)C)c1NC(=O)NC(=O)N1CCC(c2ccccc2)CC1` [Example 13, N-[[[2,6-bis(1-methylethyl)phenyl]amino]carbonyl]-1-[(4-phenyl)piperidine]carboxamide] showed an IC50 [2, 3] of 3.5 µM.
Work on `CCCCCCCCCCCCCCN(C)C(=O)NC(=O)Nc1c(C(C)C)cccc1C(C)C` [Example 14, N'-[2,6-bis(1-methylethyl)phenyl]-N-methyl-N-tetradecylimidodicarbonic diamide] yielded a change in vivo at 30 mg/kg ([1]; 30 mg/kg) of -8%.
For `CC(C)c1cccc(C(C)C)c1NC(=O)NC(=O)Oc1c(C(C)C)cccc1C(C)C` [Example 15, [[[2,6-bis(1-methylethyl)phenyl]amino]carbonyl] carbamic acid,2,6-bis(1-methylethyl)phenyl ester], the change in vivo at 30 mg/kg ([1]; 30 mg/kg) was -9%.
With `CCCCCCCCCCCCC(C)(C)OC(=O)NC(=O)Nc1c(C(C)C)cccc1C(C)C` [Example 17, [[[2,6-bis(1-methylethyl)phenyl]amino]carbonyl]carbamic acid, 1,1-dimethyltridecyl ester] the change in vivo at 30 mg/kg ([1]; 30 mg/kg) was -14%.
Compound `CCCCCCCCCCCCOC(=O)NC(=O)Nc1c(C(C)C)cccc1C(C)C` [Example 18, [[[2,6-bis(1-methylethyl)phenyl]amino]carbonyl]carbamic acid, dodecyl ester] has a change in vivo at 30 mg/kg ([1]; 30 mg/kg) of -38%.
For `CC(C)c1cccc(C(C)C)c1OC(=O)NC(=O)NC(c1ccccc1)c1ccccc1` [Example 25, [[(diphenylmethyl)amino]carbonyl]carbamic acid, 2,6-bis(1-methylethyl)phenyl ester], the “% Change in Plasma TC Values (mg/dL)” value ([1]; 30 mg/kg) was “No change” and the IC50 [2] was over 1 µM.
